The values below come from US20250145565A1 (BATTERJEE MEDICAL COLLEGE, priority 2021, published 2025).

Holding throughout (assay type): biochemical
One assay addresses ALDH2 (Homo sapiens (Human), UniProt P05091). The assay can be described thus: ALDH assay (diaphorase/resazurin), ALDH2 inhibition. The text has this: (§1) ALDH catalyzes the oxidation of acetaldehyde to acetic acid while reducing NAD+ to NADH. The formation of NADH is fluorescently detected using diaphorase/resazurin system. Diaphorase utilizes NADH formed from ALDH reaction to produce the fluorescent molecule resorufin from resazurin. See Davis, M. I.; Shen, M.; Simeonov, A.; Hall, M. D., Diaphorase Coupling Protocols for Red-Shifting Dehydrogenase Assays.
(§2) The reagent ALDH1a1 is from R&D Systems (Minneapolis, MN). ALDH2 is from Prospect Bio (East Brunswick, NJ). Acetaldehyde is from Cayman Chemicals (Ann Arbor, MI). NAD^+, and Resazurin sodium salt are from Sigma (St. Louis, MO). Diaphorase is from Reaction Biology (Malvern PA). Zaba micro spin columns are from ThermoFisher scientific (Waltham, MA). […] Desalted samples from each enzyme were pooled together and placed in ice until use. Reaction buffer (50 mM sodium pyrophosphate buffer at pH 8.8, 0.01% Brij35) degassed using vacuum for 10 mins until no visible air bubbles were seen.
(§3) 5 μl of reaction buffer was delivered to ‘no enzyme’ background control wells. Test compounds were prepared in 100% DMSO by serial dilution in 100× of assay concentration. After adding the test compounds, reaction plate was centrifuged briefly in 1200 rpm, then incubated for 20 min at room temperature, to pre-incubate enzyme and compounds. […] Reaction plate was briefly centrifuged and sealed with a plastic film to limit evaporation. After incubation at room temperature for 60 min, 10 μl of detection reagent (15 μg/ml diaphorase, 30 μM resazurin prepared in the degassed reaction buffer) was added. Reaction plate was briefly centrifuged and incubated for 10 minutes at room temperature in the dark.
A general note: Alamar Blue is a resazurin reagent that responds to reducing activity.

The target of another assay is ALDH1a1 (Homo sapiens (Human), UniProt P00352). The assay can be described thus: ALDH assay (diaphorase/resazurin), ALDH1a1 inhibition.
ALDH1a1, sequence (P00352 whole entry): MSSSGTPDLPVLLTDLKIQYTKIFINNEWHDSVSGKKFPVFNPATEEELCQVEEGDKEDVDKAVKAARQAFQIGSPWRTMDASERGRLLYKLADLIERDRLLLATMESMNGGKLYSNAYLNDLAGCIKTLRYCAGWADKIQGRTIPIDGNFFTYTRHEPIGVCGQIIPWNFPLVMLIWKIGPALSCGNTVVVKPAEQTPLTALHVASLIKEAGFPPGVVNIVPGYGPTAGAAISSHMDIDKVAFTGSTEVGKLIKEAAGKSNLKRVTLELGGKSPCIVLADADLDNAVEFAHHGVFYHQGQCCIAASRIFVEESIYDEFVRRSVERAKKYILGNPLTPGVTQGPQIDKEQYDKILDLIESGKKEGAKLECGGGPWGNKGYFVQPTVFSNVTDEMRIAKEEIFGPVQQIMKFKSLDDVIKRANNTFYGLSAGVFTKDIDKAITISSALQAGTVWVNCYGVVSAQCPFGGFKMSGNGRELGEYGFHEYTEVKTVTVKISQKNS
Source text: as §1, §2, §3

The target of another assay is human FAAH (hFAAH) (Homo sapiens (Human), UniProt O00519). The assay can be described thus: FAAH enzyme inhibition assay (Cayman kit, AMC-arachidonoyl amide). Conditions: for IC50: Table II, average of at least two experiments, read-out: IC50 (μM) ± SE (hFAAH). The method, then:
FAAH inhibition assay was performed using Fatty Acid Amide Hydrolase Inhibitor Screening Assay Kit (Item #10005196), Cayman (1180 E Ellsworth Rd Ann Arbor, MI, USA). […] Manufacturer's protocol was followed to perform the assay. The assay buffer (125 mM Tri-HCl with 1 mM EDTA, pH 9.0) was used to dilute the FAAH human recombinant enzyme. AMC-Arachidonoyl amide, at a concentration of 400 μM was then used as the FAAH substrate. Samples were mixed for 30 s and incubated at 37° C. for 30 min. The fluorescent by-product AMC (7-amino-4-methylcoumarin) released by the FAAH enzyme was detected and quantified at an excitation wavelength of 355 nm and emission wavelength of 460 nm.

The target of another assay is human MAGL (hMAGL) (Homo sapiens (Human), UniProt Q99685). The assay can be described thus: MAGL enzyme inhibition assay (4-nitrophenylacetate). Particulars: for IC50: Table II, average of at least two experiments, read-out: IC50 (μM) ± SE (hMAGL); for decrease in inhibitory activity against MAGL: relative to disulfiram / unsubstituted analog. The protocol: The plate was mixed for 30 s and incubated at room temperature for 30 min.
human MAGL (hMAGL), sequence (Q99685 whole entry): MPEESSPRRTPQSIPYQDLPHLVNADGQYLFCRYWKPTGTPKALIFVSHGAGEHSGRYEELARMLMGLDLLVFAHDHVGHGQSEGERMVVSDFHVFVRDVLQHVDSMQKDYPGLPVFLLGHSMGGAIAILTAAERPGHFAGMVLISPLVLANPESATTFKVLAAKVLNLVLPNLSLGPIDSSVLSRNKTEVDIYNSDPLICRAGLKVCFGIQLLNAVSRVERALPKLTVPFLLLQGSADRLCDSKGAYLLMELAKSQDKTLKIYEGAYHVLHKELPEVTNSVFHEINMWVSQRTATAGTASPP

Setting [1] is: Table IB, mean of at least two independent experiments, read-out: IC50 (μM) ± SE (ALDH2).
Where [2] appears, read: Table IA, mean of at least two independent experiments, read-out: IC50 (μM) ± SE (ALDH1a1).
The mark [3] stands for this setting: Table III, read-out: Aldh1a1 (IC50, μM) ± SE.

Like-named read-outs stand apart in the source and are kept apart here. A value given as a limit tells only on which side of the number the result lay.

human FAAH (hFAAH), sequence (O00519 whole entry): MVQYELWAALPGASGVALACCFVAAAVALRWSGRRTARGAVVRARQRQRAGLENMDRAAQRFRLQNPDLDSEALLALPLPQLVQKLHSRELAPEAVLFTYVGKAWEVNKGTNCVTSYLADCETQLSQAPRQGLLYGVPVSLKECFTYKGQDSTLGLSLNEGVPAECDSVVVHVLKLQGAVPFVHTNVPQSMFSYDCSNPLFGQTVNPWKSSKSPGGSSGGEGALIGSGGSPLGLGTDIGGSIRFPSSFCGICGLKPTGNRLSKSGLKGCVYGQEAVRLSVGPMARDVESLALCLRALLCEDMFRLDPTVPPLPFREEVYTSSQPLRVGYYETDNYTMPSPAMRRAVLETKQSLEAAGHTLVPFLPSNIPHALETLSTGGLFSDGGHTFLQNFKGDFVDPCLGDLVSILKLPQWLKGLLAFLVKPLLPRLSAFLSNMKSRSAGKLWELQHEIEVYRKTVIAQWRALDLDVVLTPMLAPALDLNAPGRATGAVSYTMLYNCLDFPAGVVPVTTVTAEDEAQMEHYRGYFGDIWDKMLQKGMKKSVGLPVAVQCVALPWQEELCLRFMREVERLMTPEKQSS
ALDH2, sequence (P05091 18-517): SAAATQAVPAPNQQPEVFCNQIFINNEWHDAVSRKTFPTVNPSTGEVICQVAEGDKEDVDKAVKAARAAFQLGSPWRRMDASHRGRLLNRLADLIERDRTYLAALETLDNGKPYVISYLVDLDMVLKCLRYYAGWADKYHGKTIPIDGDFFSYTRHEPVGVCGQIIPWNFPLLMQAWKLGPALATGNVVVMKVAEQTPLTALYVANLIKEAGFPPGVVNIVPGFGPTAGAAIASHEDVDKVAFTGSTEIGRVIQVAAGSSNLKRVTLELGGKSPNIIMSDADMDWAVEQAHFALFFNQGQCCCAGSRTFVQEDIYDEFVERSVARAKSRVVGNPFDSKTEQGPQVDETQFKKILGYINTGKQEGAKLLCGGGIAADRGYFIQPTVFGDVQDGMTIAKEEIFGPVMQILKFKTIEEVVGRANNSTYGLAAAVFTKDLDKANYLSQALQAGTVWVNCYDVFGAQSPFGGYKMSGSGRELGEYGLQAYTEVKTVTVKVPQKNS

Take `CN(C)C(=S)SSC(=S)N(C)C` [Compound I-2g, reference compound]: the half-inhibitory concentration (IC50) (commonly the concentration needed to halve the response being measured) turned out to be 0.32 ± 0.04 µM at ALDH2 (setting [1]) and 0.02 ± 0.01 µM at ALDH1a1 (setting [2]).
Take `CCN(Cc1ccc(C(=O)O)cc1)C(=S)SSC(=S)N(CC)Cc1ccc(C(=O)O)cc1` [Compound I-2d]: the IC50 was found to be 99.36 ± 0.64 µM at ALDH2 (setting [1]), 22.6 ± 16.8 µM on human MAGL (hMAGL) and 2.96 ± 1.52 µM on ALDH1a1 (setting [2]). In addition, the “FAAH inhibitory activity (in words)” value at human FAAH (hFAAH) is recorded as “devoid of anti-FAAH activity”. The “decrease in inhibitory activity against MAGL” value at human MAGL (hMAGL) was 20 fold. At ALDH1a1 (relative to I-2a), the “decrease in ALDH1a1 inhibitory activity” value is on record as “tenfold decrease”.
Turning to `CCN(Cc1ccc(OC)cc1)C(=S)SSC(=S)N(CC)Cc1ccc(OC)cc1`, the “Aldh2 (IC50, μM) ± SE” value on ALDH2 (Table III) was “No inhibition”. Further, the IC50 on ALDH1a1 (setting [3]) was 0.58 ± 0.41 µM.
Consider `CCOCCNC(=S)SSC(=S)NCCOCC` [Compound I-2m, reference compound], for which the half-maximal inhibitory concentration (IC50) at ALDH1a1 (setting [2]) turned out to be 0.04 ± 0.03 µM.
In the case of “N-Acetyl-L-Cysteamine [Compound 5, reference compound]”, the “ALDH2 inhibitory activity (in words)” value at ALDH2 was “none of them showed any activity”. Further, on ALDH1a1, the “activity against ALDH1a1 (in words)” value is on record as “none of them showed any activity”.
On to `NCCSSCCN` [Compound 4, Cystamine, reference compound], for which, at ALDH2, the “ALDH2 inhibitory activity (in words)” value was “none of them showed any activity”. Besides, on ALDH1a1, the “activity against ALDH1a1 (in words)” value is listed as “none of them showed any activity”. The 50% inhibitory concentration (IC50) at ALDH1a1 (setting [2]) is over 100 µM.
For the molecule `CCN(Cc1ccco1)C(=S)SSC(=S)N(CC)Cc1ccco1` [III-2p, bis(N-(2-furylmethyl)ethylthiocarbamoyl)disulphide], the IC50 at ALDH2 (Table III, read-out: Aldh2 (IC50, μM) ± SE) amounted to 200 ± 129 µM; at ALDH1a1 (setting [3]) it was 0.39 ± 0.27 µM.
For the molecule `CCN(CCO)C(=S)SSC(=S)N(CC)CCO` [Compound I-2f, bis(N-hydroxyethylethylthiocarbamoyl)disulfide], the IC50 worked out at 25.7 ± 12.3 µM at ALDH2 (setting [1]), 25.4 ± 3.26 µM on human FAAH (hFAAH), 0.72 ± 0.2 µM at human MAGL (hMAGL) and 2.54 ± 1.15 µM at ALDH1a1 (setting [2]).
For “bis(N-4-ethoxycarbonylbenzylethylthiocarbamoyl)disulphide [II-2l]”, at human FAAH (hFAAH), the “FAAH inhibitory activity (in words)” value is reported as “devoid of anti-FAAH activity”. Further, the half-inhibitory concentration (IC50) at human MAGL (hMAGL) was 5.03 ± 2.35 µM.
`O=C(Oc1ccc([N+](=O)[O-])cc1)N1CCN(Cc2cccc(Oc3ccccc3)c2)CC1` [JZL-195, reference compound]: the half-inhibitory concentration (IC50) on human FAAH (hFAAH) turned out to be 0.04 ± 0.02 µM.
For the molecule `CC(C)N(C(=S)SSC(=S)N(C(C)C)C(C)C)C(C)C` [Compound I-2h, reference compound], the half-inhibitory concentration (IC50) is over 100 µM on ALDH2 (setting [1]), 1.89 ± 0.37 µM on human MAGL (hMAGL) and 2.85 ± 1.08 µM on ALDH1a1 (setting [2]).
With `CCN(CC)C(=S)SSC(=S)N(CC)CC` [Disulfiram, reference compound], the IC50 on human FAAH (hFAAH) (listed as II-2a) came out at 36.2 ± 11 µM; at human MAGL (hMAGL) it was 0.95 ± 0.26 µM.
In the case of `CC(C)CN(CC(C)C)C(=S)SSC(=S)N(CC(C)C)CC(C)C` [Compound I-2j, reference compound], the “FAAH inhibitory activity (in words)” value on human FAAH (hFAAH) was “no inhibition”. Further, at human MAGL (hMAGL), the IC50 worked out at 13.4 ± 4.79 µM and the “decrease in inhibitory activity against MAGL” value is recorded as “up to 15 fold”. Besides, on human MAGL (hMAGL) (dithiothreitol (10 mM)), the “hydrolytic activity of inhibited MAGL upon addition of dithiothreitol” value was “restored”. In addition, the “activity against ALDH1a1 (in words)” value at ALDH1a1 is “complete loss of activity”. Moreover, the IC50 at ALDH1a1 (setting [2]) was over 100 µM.
With `NCCS` [Compound 3, Cysteamine, reference compound], the “ALDH2 inhibitory activity (in words)” value on ALDH2 is given as “none of them showed any activity”. On ALDH1a1, the “activity against ALDH1a1 (in words)” value is given as “none of them showed any activity”.
Regarding `CCN(Cc1ccc(C(F)(F)F)cc1)C(=S)SSC(=S)N(CC)Cc1ccc(C(F)(F)F)cc1` [III-1n, bis(N-4-trifluoromethylbenzylethylthiocarbamoyl)disulphide], the “Aldh2 (IC50, μM) ± SE” value on ALDH2 (Table III) is reported as “No inhibition”. Moreover, the “Aldh1a1 (IC50, μM) ± SE” value on ALDH1a1 (Table III) was “No inhibititon”.
Consider “bis(N-4-hydroxybenzylethylthlocarbamoyl)disulfide [Compound I-2c]”, for which the IC50 amounted to 10.9 ± 0.61 µM at ALDH2 (setting [1]), 38.2 ± 7.96 µM at human FAAH (hFAAH), 3.71 ± 1.28 µM at human MAGL (hMAGL) and 0.21 ± 0.04 µM at ALDH1a1 (setting [2]). Further, at ALDH1a1 (addition of dithiothreitol), the “catalytic activity of inhibited ALDH1a1 after addition of dithiothreitol” value was “completely restored”.
In the case of `CCN(CCC(=O)O)C(=S)SSC(=S)N(CC)CCC(=O)O` [Compound I-2e, bis(N-carboxylethylethylthiocarbamoyl)disulfide], the IC50 on ALDH2 (setting [1]) was found to be 0.85 ± 0.55 µM; on human FAAH (hFAAH), 12.8 ± 1.57 µM; at human MAGL (hMAGL), 0.87 ± 0.21 µM; at ALDH1a1 (setting [2]), 0.15 ± 0.14 µM.
On to `CCN(Cc1ccncc1)C(=S)SSC(=S)N(CC)Cc1ccncc1` [III-2o, bis(N-(4-pyridylmethyl)ethylthiocarbamoyl) disulphide], for which, at ALDH2 (Table III), the “Aldh2 (IC50, μM) ± SE” value is “No inhibition”. Also, the IC50 at ALDH1a1 (setting [3]) came out at 5.76 ± 4.01 µM.
In the case of `CCN(Cc1cccs1)C(=S)SSC(=S)N(CC)Cc1cccs1` [III-2q, bis(N-(2-thienylmethyl)ethylthiocarbamoyl)disulphide], the “Aldh2 (IC50, μM) ± SE” value at ALDH2 (Table III) is given as “No inhibition”. Also, at ALDH1a1 (setting [3]), the IC50 was 0.39 ± 0.31 µM.
Take `CCN(Cc1ccsc1)C(=S)SSC(=S)N(CC)Cc1ccsc1` [III-2r, bis(N-(3-thienylmethyl)ethylthiocarbamoyl)disulphide]: the “Aldh2 (IC50, μM) ± SE” value at ALDH2 (Table III) was “No inhibition”. On ALDH1a1 (setting [3]), the half-inhibitory concentration (IC50) amounted to 0.17 ± 0.1 µM.
For `CCOC(=O)CCN(CC)C(=S)SSC(=S)N(CC)CCC(=O)OCC` [II-2g, bis(N-ethoxycarbonylethylethylthiocarbamoyl)disulphide], the concentration for half-maximal inhibition (IC50) on human FAAH (hFAAH) amounted to 10.1 ± 0.68 µM; on human MAGL (hMAGL) it was 3.53 ± 1.32 µM.
